Experimental data taken from patent EP2045247B1, “Compounds for the inhibition of histone deacetylase” (NatureWise Biotech & Medicals Corporation, priority 2007, dated 2009).

How the values were obtained:
[1] = test system: breast cancer MCF-7 cells; experiment: Inhibition of growth and change of morphology of MCF-7 cells; assay type: cell-based, human
Procedure: The breast cancer MCF-7 cells, were cultured in Dulbecco's modified Eagle's medium (DMEM; Gibco) supplemented with penicillin G, streptomycin sulphate, 0.5 mM of L-glutamine and 10% fetal bovine serum (FBS; Gibco) at 37 °C, 5% CO2 and 95% relative humidity. The cells were seeded at a density of 3×10^5 per well of 6-well plates. After 24 hours, the cells were treated with different concentrations of compound NBM-HD-1 and 4mM sodium butyrate being used as the positive control. The cells were observed after 48 hours and counted after 96 hours. […] In Fig. 8(A), after the cells were incubated with 2.5 µg/mL (Fig. 8(A)-b), 5 µg/mL (Fig. 8(A)-c) and 10 µg/mL (Fig. 8(A)-d) of NBM-HD-1 for 48 hours, the density of MCF-7 cells reduced dramatically in comparison with that of the control group (Fig. 8(A)-a). The morphology of the MCF-7 cells in the experimental group changed in comparison with that in the control group. […] The results of the cell counting (FIG. 8(B)) indicate that, similar to sodium butyrate, NBM-HD-1 inhibits cell growth.
MCF-7 cancer cells were seeded at a density of 3×10^5 per well in 6-well plates. After 24 hours, the cells were treated with different concentrations of compound NBM-HD-2 and 4mM sodium butyrate being used as the positive control. The cells were observed and counted after 72 hours. […] In Fig. 13(A), after the cells were incubated with 2.5 µg/mL (Fig. 13(A)-c), 5 µg/mL (Fig. 13(A)-d), 7.5 µg/mL (Fig. 13(A)-e) and 10 µg/mL (Fig. 13(A)-f) of NBM-HD-2 for 72 hours, the density of MCF-7 cells reduced dramatically in comparison with that of the control group (Fig. 13(A)-a). The morphology of the MCF-7 cells in the experimental group changed in comparison with that in the control group.
MCF-7 cancer cells were seeded at a density of 3×10^5 per well of 6-well plates. After 24 hours, the cells were treated with different concentrations of compound NBM-HD-3 and 4mM sodium butyrate, which was being used as the positive control. The cells were observed and counted after 72 hours. […] In Fig. 14(A), after the cells were incubated with 2.5 µg/mL (Fig. 14(A)-c), 5 µg/mL (Fig. 14(A)-d), 7.5 µg/mL (Fig. 14(A)-e) and 10 µg/mL (Fig. 14(A)-f) of NBM-HD-3 for 72 hours, the density of MCF-7 cells reduced dramatically in comparison with that of the control group (Fig. 14(A)-a). The morphology of the MCF-7 cells in the experimental group changed in comparison with that in the control group. […] The results of the cell counting (FIG. 14(B)) indicate that, similar to sodium butyrate, NBM-HD-3 inhibits cell growth.

p21 = experiment: RT-PCR of p21 mRNA in MCF-7 cells; assay type: cell-based, human; settings: different doses, 24 hours (Fig. 10)
Procedure: The cell cycle related to p21 mRNA expression was examined by RT-PCR. The total RNAs were isolated from the treated MCF-7 cells and used in the RT reaction. cDNA (1µl) was used as a template to amplify p21 gene by PCR. GAPDH was used as an internal control. […] In this experiment, MCF-7 cells were treated with different doses of NBM-HD-1 for 24 hours.

acetylated histone H4 = experiment: Western blotting of hyperacetylated histone H4 in C6 glioma cell lysates; assay type: cell-based, rat; settings: C6 glioma cells
Procedure: Accumulation of hyperacetylated histone H4 was analyzed in the cell lysates by using Western Blotting and the antibody directed against acetylated histone H4 (Upstate). The C6 glioma cells were seeded at a density of 1×10^6 per 10cm culture dish. After 24 hours, the cells were treated with 10 µg/mL of NBM-HD-1 or 4mM sodium butyrate for several hours. The whole-cell lysates were prepared by using denaturing SDS sample buffer and then separated on 15% SDS-polyacrylamide gels. […] The amount of acetylated histones was hardly detectable in untreated C6 glioma cells. The amount of acetylated histone H4 of the cells treated with 4mM sodium butyrate for 2 hours increased. Sodium butyrate was then removed from the culture medium. After 6 hours, the amount of acetylated histone H4 decreased. The accumulation of acetylated histone H4 increased in the cells treated with NBM-HD-1 for 2 hours. […] The highest histone acetylation appeared at 6 hours after the compound had been removed. […] Because NBM-HD-1 is more hydrophobic than sodium butyrate, NBM-HD-1 can be retained in the cells longer than sodium butyrate and continuously induce the acetylation of histone H4.

GFAP = GFAP expression in C6 glioma cells (immuno-fluorescent staining and RT-PCR), differentiation marker; assay type: cell-based, rat
Procedure: After the C6 glioma cells were incubated with 10 µg/mL NBM-HD-1 for 24 hours, they were fixed and analyzed by the traditional immuno-fluorescent staining method. Staining of glia was carried out by using glial-specific GFAP antibody (SIGMA) as the primary antibody and a fluorescence labeled rabbit immuno-globulin (SIGMA) as the secondary antibody to bind with the primary antibody. The cells which are GFAP-positive were excited by a specific light source to emit fluorescence. Also, the nuclei were stained with DAPI. […] In contrast with the control group, more GFAP proteins were detected in the photos of the cells being treated with 10 µg/mL of NBM-HD-1.
The GFAP mRNA expression was examined by RT-PCR.

MCF-7 cancer cells = experiment: Cell cycle analysis of MCF-7 cells by FACScan cytometry; assay type: cell-based, human; settings: 0, 2.5, 5 and 10µg/mL, 72 hours (Fig. 9)
Procedure: 1×10^6 of rat C6 glioma cells were treated with various concentrations of NBM-HD-1 (0 µg/mL, 2.5 µg/mL, 5 µg/mL, and 10 µg/mL) for 72 hours. The treated cells were trysinized and collected. The cells were resuspended in 200 µL PBS and then fixed by adding 800 µL of cold 100% ethanol. The resulting cells were fixed overnight at -20[…]. The cell pellets were collected by centrifugation, resuspended in 1 mL of hypotonic buffer (0.5% Triton X-100 in PBS and 1 µg/mL RNase A), and incubated at 37 °C for 30 minutes. Then, 1 mL of PI solution (50 µg/mL) was added to the resulting cell pellets. The mixture was allowed to stand at 4[…] for 30 min. The DNA amounts of the cells were analyzed by FACScan Cytometry (Becton Dickinson) (see Fig. 2).
MCF-7 cancer cells (1×10^6) in a 100-mm dish were treated with various concentrations of NBM-HD-1 (0, 2.5, 5, and 10µg/mL) or 4mM sodium butyrate for 72 hours. The samples were prepared following the steps mentioned in [0063]. The DNA of the cells was then analyzed by FACScan cytometry (Becton Dickinson). […] The percentage of G0/G1 phase increased from 74.46 to 92.55 in a dose-dependent manner.

COc1cc2c(c(OC)c1CCC(C)(C)O)C(=O)C[C@@H](c1ccc(OC)c(OC)c1C/C=C(\C)CCCC(C)(C)O)O2 [NBM-HD-1]
morphology of MCF-7 cells ([1]; 2.5, 5 and 10 µg/mL, 48 hours (Fig. 8(A))): change their morphology | growth of MCF-7 cancer cells ([1]; NBM-HD-1 2.5, 5 and 10 µg/mL, sodium butyrate 4mM, observed after 48 hours, counted after 96 hours (Fig. 8)): can inhibit the growth of MCF-7 cancer cells in a dose-dependent manner | p21 mRNA expression (p21): induced the expression of p21 in a dose-dependent manner | accumulation of acetylated histone H4, treated for 2 hours (acetylated histone H4; 10 µg/mL NBM-HD-1 or 4mM sodium butyrate, 2 hours (Fig. 5)): increased | time of highest histone acetylation after the compound had been removed (acetylated histone H4; 10 µg/mL, 2 hours treatment, then removal): 6 h | amount of acetylated histone H4 after removal of the compound from the culture medium (acetylated histone H4; up to 6 hours after removal (Fig. 5)): increased over time | GFAP expression (immuno-fluorescent staining) (GFAP; 10 µg/mL, 24 hours (Fig. 4(A))): can induce the GFAP expression of C6 glioma cancer cells | GFAP mRNA expression (GFAP; RT-PCR (Fig. 4(B))): increased in a dose-dependent manner | S and G2/M phases of the cells (MCF-7 cancer cells): significantly decreased both S and G2/M phases of the cells in a dose-dependent manner
